Data from the supplement of paper PMC10307832.

Assays:
Assay in all cases: relative viability (nuclei count vs DMSO), 5 days (fraction); higher = more cells survive
201T = system: 201T
Method in brief: (§1)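 Lung cancer cell lines in 1536-well plates got either a single drug or a fixed anchor-drug dose together with five library-drug doses (not always all listed) in √10 steps, by pin tool, on the day after seeding. Nuclei were counted after 5 days, and relative viability is the treated-to-vehicle ratio of nuclei counts. Values are medians of duplicate plates.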

A-427 = system: A-427
Method in brief: as §1

COR-L23 = system: COR-L23
Method in brief: as §1

H3255 = system: H3255
Method in brief: as §1

LCLC-103H = system: LCLC-103H
Method in brief: as §1

LCLC-97TM1 = system: LCLC-97TM1
Method in brief: as §1

LU99A = system: LU99A
Method in brief: as §1

NCI-H1563 = system: NCI-H1563
Method in brief: as §1

NCI-H1650 = system: NCI-H1650
Method in brief: as §1

NCI-H1651 = system: NCI-H1651
Method in brief: as §1

NCI-H2347 = system: NCI-H2347
Method in brief: as §1

NCI-H23 = system: NCI-H23
Method in brief: as §1

NCI-H460 = system: NCI-H460
Method in brief: as §1

NCI-H650 = system: NCI-H650
Method in brief: as §1

NCI-H727 = system: NCI-H727
Method in brief: as §1

NCI-H838 = system: NCI-H838
Method in brief: as §1

PC-14 = system: PC-14
Method in brief: as §1

PC-3 [JPC-3] = system: PC-3 [JPC-3]
Method in brief: as §1

RERF-LC-KJ = system: RERF-LC-KJ
Method in brief: as §1

SW 1573 = system: SW 1573
Method in brief: as §1

CC(C)Oc1cc(Nc2nc(N[C@@H](C)c3ccc(F)cn3)ncc2Cl)n[nH]1 [AZ23] + CC(C)C[C@H](NC(=O)[C@H](Cc1ccccc1)NC(=O)c1cnccn1)B(O)O [Bortezomib] (partner 0.002 µM) was tested, and the relative viability (201T; first compound 0.01 µM) was 1.18, the relative viability (201T; first compound 0.03162 µM) was 1.07 and the relative viability (201T; first compound 0.3162 µM) was 1.13. For the same molecule, the relative viability (A-427; first compound 0.01 µM) was 1.07, the relative viability (A-427; first compound 0.03162 µM) was 1.11 and the relative viability (A-427; first compound 0.3162 µM) was 0.969. For the same molecule, the relative viability (COR-L23; first compound 0.01 µM) was 0.921, the relative viability (COR-L23; first compound 0.03162 µM) was 1.27 and the relative viability (COR-L23; first compound 0.3162 µM) was 1.04. The relative viability (H3255; first compound 0.01 µM) was 0.64, the relative viability (H3255; first compound 0.03162 µM) was 1.06 and the relative viability (H3255; first compound 0.3162 µM) was 0.81. The relative viability (LCLC-103H; first compound 0.01 µM) was 1.01, the relative viability (LCLC-103H; first compound 0.03162 µM) was 1.26 and the relative viability (LCLC-103H; first compound 0.3162 µM) was 1.14. For the same molecule, the relative viability (LCLC-97TM1; first compound 0.01 µM) was 0.277, the relative viability (LCLC-97TM1; first compound 0.03162 µM) was 1 and the relative viability (LCLC-97TM1; first compound 0.3162 µM) was 0.755. For the same molecule, the relative viability (LU99A; first compound 0.01 µM) was 1.13, the relative viability (LU99A; first compound 0.03162 µM) was 1.2 and the relative viability (LU99A; first compound 0.3162 µM) was 1.13. For the same molecule, the relative viability (NCI-H1563; first compound 0.01 µM) was 0.931, the relative viability (NCI-H1563; first compound 0.03162 µM) was 1.01 and the relative viability (NCI-H1563; first compound 0.3162 µM) was 0.816. It also gave a relative viability (NCI-H1650; first compound 0.01 µM) of 0.189, a relative viability (NCI-H1650; first compound 0.03162 µM) of 0.242 and a relative viability (NCI-H1650; first compound 0.3162 µM) of 0.187. For the same molecule, the relative viability (NCI-H1651; first compound 0.01 µM) was 0.957, the relative viability (NCI-H1651; first compound 0.03162 µM) was 1.02 and the relative viability (NCI-H1651; first compound 0.3162 µM) was 1.01. For the same molecule, the relative viability (NCI-H2347; first compound 0.01 µM) was 0.927, the relative viability (NCI-H2347; first compound 0.03162 µM) was 1.04 and the relative viability (NCI-H2347; first compound 0.3162 µM) was 0.979. The relative viability (NCI-H23; first compound 0.03162 µM) was 1.12, the relative viability (NCI-H23; first compound 0.3162 µM) was 1.04 and the relative viability (NCI-H460; first compound 0.01 µM) was 0.915. The relative viability (NCI-H460; first compound 0.03162 µM) was 1.47, the relative viability (NCI-H460; first compound 0.3162 µM) was 1.38 and the relative viability (NCI-H650; first compound 0.01 µM) was 0.71. It also gave a relative viability (NCI-H650; first compound 0.03162 µM) of 0.946, a relative viability (NCI-H650; first compound 0.3162 µM) of 0.84 and a relative viability (NCI-H727; first compound 0.01 µM) of 0.855. For the same molecule, the relative viability (NCI-H727; first compound 0.03162 µM) was 0.855, the relative viability (NCI-H727; first compound 0.3162 µM) was 0.867 and the relative viability (NCI-H838; first compound 0.01 µM) was 0.772. The relative viability (NCI-H838; first compound 0.03162 µM) was 0.702, the relative viability (NCI-H838; first compound 0.3162 µM) was 0.757 and the relative viability (PC-14; first compound 0.01 µM) was 0.774. For the same molecule, the relative viability (PC-14; first compound 0.03162 µM) was 1.04, the relative viability (PC-14; first compound 0.3162 µM) was 0.917 and the relative viability (PC-3 [JPC-3]; first compound 0.01 µM) was 0.893. It also gave a relative viability (PC-3 [JPC-3]; first compound 0.03162 µM) of 1.01, a relative viability (PC-3 [JPC-3]; first compound 0.3162 µM) of 0.887 and a relative viability (RERF-LC-KJ; first compound 0.01 µM) of 1.23. It also gave a relative viability (RERF-LC-KJ; first compound 0.03162 µM) of 1.31, a relative viability (RERF-LC-KJ; first compound 0.3162 µM) of 1.17 and a relative viability (SW 1573; first compound 0.01 µM) of 1.24. The relative viability (SW 1573; first compound 0.03162 µM) was 1.2 and the relative viability (SW 1573; first compound 0.3162 µM) was 1.
